Read-outs that look alike come from different tables or passages of the source.
Legend:
CDK-9/Cyclin T1 = CDK-9/Cyclin T1 (Homo sapiens, UniProt P50750); assay: CDK inhibition assay, CDK-9/Cyclin T1 against substrate peptide, 33P-ATP; type: biochemical; details: at 500 nM
Procedure: (50-1000 cpm/pmole) and incubated for 30 min at room temperature. Assays were stopped by addition of 5 µl of 0.5 M (3%) orthophosphoric acid and then harvested onto P81 Unifilter plates with a wash buffer of 50 mM orthophosphoric acid.

CDK-2/cyclin A = CDK-2/cyclin A (Homo sapiens, UniProt P24941); assay: CDK inhibition assay, CDK-2/cyclin A against Histone HI, 33P-ATP; type: biochemical; details: at 500 nM
Procedure: Compounds were evaluated for their ability to inhibit CDK2 and CDK9 as given below.
CDK-2/cyclin A (5-20 mU diluted in 50 mM Hepes pH 7.5, 1 mM DTT, 0.02% Brij35, 100 mM NaCl) was assayed against Histone HI in a final volume of 25.5 µl containing 50 mM Hepes pH7.5, 1 mM DTT, 0.02% Brij35, 100 mM NaCl, Histone HI (1 mg/ml), 10 mM magnesium acetate and 0.02 mM [33P-g-ATP](500-1000 cpm/pmole) and incubated for 30 min at room temperature. Assays were stopped by addition of 5 µl of 0.5 M (3%) orthophosphoric acid and then harvested onto P81 Unifilter plates with a wash buffer of 50 mM orthophosphoric acid.

[1] = Table-6, read-out: In vitro CDK9 % of inhibition
[2] = Table-6, read-out: In vitro CDK2 % of inhibition
[3] = Table-7, read-out: In vitro CDK9 % of inhibition
[4] = read-out: inhibition against CDK9
[5] = Table-7, read-out: In vitro CDK2 % of inhibition
[6] = read-out: inhibition against CDK2

CDK-9/Cyclin T1, sequence (P50750 whole entry): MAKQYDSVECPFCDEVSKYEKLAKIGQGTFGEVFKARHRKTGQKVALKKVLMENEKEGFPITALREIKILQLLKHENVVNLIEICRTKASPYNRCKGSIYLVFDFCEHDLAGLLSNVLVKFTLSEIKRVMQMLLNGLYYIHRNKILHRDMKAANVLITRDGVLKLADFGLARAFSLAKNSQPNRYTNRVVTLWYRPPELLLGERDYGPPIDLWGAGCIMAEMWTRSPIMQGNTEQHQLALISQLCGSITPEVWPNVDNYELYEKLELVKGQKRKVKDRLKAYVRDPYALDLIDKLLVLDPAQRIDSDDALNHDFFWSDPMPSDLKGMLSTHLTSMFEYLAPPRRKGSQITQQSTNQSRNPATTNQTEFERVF
CDK-9/Cyclin T1, sequence (O60563 whole entry partner): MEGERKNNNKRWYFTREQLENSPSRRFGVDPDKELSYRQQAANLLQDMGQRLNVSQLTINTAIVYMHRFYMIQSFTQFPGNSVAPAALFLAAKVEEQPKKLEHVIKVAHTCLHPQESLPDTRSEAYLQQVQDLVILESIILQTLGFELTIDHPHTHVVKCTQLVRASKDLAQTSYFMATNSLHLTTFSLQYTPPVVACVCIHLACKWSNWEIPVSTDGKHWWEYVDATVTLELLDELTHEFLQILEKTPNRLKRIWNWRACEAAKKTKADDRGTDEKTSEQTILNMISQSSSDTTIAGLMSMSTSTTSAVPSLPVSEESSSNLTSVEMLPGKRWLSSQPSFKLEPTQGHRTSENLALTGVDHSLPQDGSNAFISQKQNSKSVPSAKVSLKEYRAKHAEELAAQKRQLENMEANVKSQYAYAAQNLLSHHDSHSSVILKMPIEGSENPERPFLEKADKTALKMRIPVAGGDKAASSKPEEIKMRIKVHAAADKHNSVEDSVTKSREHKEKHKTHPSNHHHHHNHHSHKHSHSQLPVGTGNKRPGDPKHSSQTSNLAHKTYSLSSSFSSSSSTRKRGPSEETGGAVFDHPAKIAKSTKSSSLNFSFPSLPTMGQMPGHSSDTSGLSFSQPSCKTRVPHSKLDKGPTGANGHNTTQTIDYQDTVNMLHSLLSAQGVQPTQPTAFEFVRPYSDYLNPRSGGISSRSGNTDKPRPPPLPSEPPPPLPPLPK

FC(F)(F)c1cccc(-c2cnc3[nH]cc(-c4ccnc(NC5CCCCCC5)n4)c3c2)c1 [1A44, N-cycloheptyl-4-(5-(3-(trifluoromethyl)phenyl)-1H-pyrrolo[2,3-b]pyridin-3-yl)pyrimidin-2-amine]
inhibition at 0.5 µM (CDK-9/Cyclin T1; [1]): > 50%
inhibition at 0.5 µM (CDK-2/cyclin A; [2]): > 70%

c1ccc(CCNc2nccc(-c3c[nH]c4ncc(-c5nccc6ccccc56)cc34)n2)cc1 [1B20, 4-(5-(isoquinolin-1-yl)-1H-pyrrolo[2,3-b]pyridin-3-yl)-N-phenethylpyrimidin-2-amine]
inhibition at 0.5 µM (CDK-9/Cyclin T1; [3]): > 50%
inhibition at 0.5 µM (CDK-9/Cyclin T1; [4]): > 50%
inhibition at 0.5 µM (CDK-2/cyclin A; [5]): > 50%
inhibition at 0.5 µM (CDK-2/cyclin A; [6]): > 50%

Fc1cccc(-c2cnc3[nH]cc(-c4ccnc(NC5CCCC5)n4)c3c2)c1 [1A25, N-cyclopentyl-4-(5-(3-fluorophenyl)-1H-pyrrolo[2,3-b]pyridin-3-yl)pyrimidin-2-amine]
inhibition at 0.5 µM (CDK-9/Cyclin T1; [1]): > 70%
inhibition at 0.5 µM (CDK-2/cyclin A; [2]): > 70%

Cc1cccc(-c2cnc3[nH]cc(-c4ccnc(NCCc5ccccc5)n4)c3c2)c1 [1B7, N-phenethyl-4-(5-(m-tolyl)-1H-pyrrolo[2,3-b]pyridin-3-yl)pyrimidin-2-amine]
inhibition at 0.5 µM (CDK-9/Cyclin T1; [3]): > 70%
inhibition at 0.5 µM (CDK-9/Cyclin T1; [4]): > 70%
inhibition at 0.5 µM (CDK-2/cyclin A; [5]): > 70%
inhibition at 0.5 µM (CDK-2/cyclin A; [6]): > 70%

Cc1cccc(-c2cnc3[nH]cc(-c4ccnc(NC5CC5)n4)c3c2)c1 [1A7, N-cyclopropyl-4-(5-(m-tolyl)-1H-pyrrolo[2,3-b]pyridin-3-yl)pyrimidin-2-amine]
inhibition at 0.5 µM (CDK-9/Cyclin T1; [1]): > 70%
inhibition at 0.5 µM (CDK-9/Cyclin T1; [4]): > 70%
inhibition at 0.5 µM (CDK-2/cyclin A; [2]): > 70%
inhibition at 0.5 µM (CDK-2/cyclin A; [6]): > 70%

c1ccc2c(-c3cnc4[nH]cc(-c5ccnc(NC6CCCCCC6)n5)c4c3)nccc2c1 [1A60, N-cycloheptyl-4-(5-(isoquinolin-1-yl)-1H-pyrrolo[2,3-b]pyridin-3-yl)pyrimidin-2-amine]
inhibition at 0.5 µM (CDK-9/Cyclin T1; [3]): > 70%
inhibition at 0.5 µM (CDK-9/Cyclin T1; [4]): > 70%
inhibition at 0.5 µM (CDK-2/cyclin A; [5]): > 70%
inhibition at 0.5 µM (CDK-2/cyclin A; [6]): > 70%

Fc1cccc(-c2cnc3[nH]cc(-c4ccnc(NC5CCCCCC5)n4)c3c2)c1 [1A45, N-cycloheptyl-4-(5-(3-fluorophenyl)-1H-pyrrolo[2,3-b]pyridin-3-yl)pyrimidin-2-amine]
inhibition at 0.5 µM (CDK-9/Cyclin T1; [1]): > 70%
inhibition at 0.5 µM (CDK-2/cyclin A; [2]): > 70%

COc1ccc2[nH]c(-c3cnc4[nH]cc(-c5ccnc(NCCc6ccccc6)n5)c4c3)cc2c1 [1B17, 4-(5-(5-methoxy-1H-indol-2-yl)-1H-pyrrolo[2,3-b]pyridin-3-yl)-N-phenethylpyrimidin-2-amine]
inhibition at 0.5 µM (CDK-9/Cyclin T1; [3]): > 50%
inhibition at 0.5 µM (CDK-9/Cyclin T1; [4]): > 50%
inhibition at 0.5 µM (CDK-2/cyclin A; [5]): > 50%
inhibition at 0.5 µM (CDK-2/cyclin A; [6]): > 50%

c1cc(-c2c[nH]c3ncc(-c4ccoc4)cc23)nc(NC2CCCCCC2)n1 [1A56, N-cycloheptyl-4-(5-(furan-3-yl)-1H-pyrrolo[2,3-b]pyridin-3-yl)pyrimidin-2-amine]
inhibition at 0.5 µM (CDK-9/Cyclin T1; [3]): > 70%
inhibition at 0.5 µM (CDK-9/Cyclin T1; [4]): > 70%
inhibition at 0.5 µM (CDK-2/cyclin A; [5]): > 70%
inhibition at 0.5 µM (CDK-2/cyclin A; [6]): > 70%

c1ccc(CCNc2nccc(-c3c[nH]c4ncc(-c5cc6ccccc6s5)cc34)n2)cc1 [1B18, 4-(5-(benzo[b]thiophen-2-yl)-1H-pyrrolo[2,3-b]pyridin-3-yl)-N-phenethylpyrimidin-2-amine]
inhibition at 0.5 µM (CDK-9/Cyclin T1; [3]): > 50%
inhibition at 0.5 µM (CDK-9/Cyclin T1; [4]): > 50%
inhibition at 0.5 µM (CDK-2/cyclin A; [5]): > 50%
inhibition at 0.5 µM (CDK-2/cyclin A; [6]): > 50%

Cc1ccc(-c2cnc3[nH]cc(-c4ccnc(NC5CC5)n4)c3c2)cc1 [1A6, N-cyclopropyl-4-(5-(p-tolyl)-1H-pyrrolo[2,3-b]pyridin-3-yl)pyrimidin-2-amine]
inhibition at 0.5 µM (CDK-9/Cyclin T1; [1]): > 70%
inhibition at 0.5 µM (CDK-9/Cyclin T1; [4]): > 70%
inhibition at 0.5 µM (CDK-2/cyclin A; [2]): > 70%
inhibition at 0.5 µM (CDK-2/cyclin A; [6]): > 70%

Cc1ccc(-c2cnc3[nH]cc(-c4ccnc(NCCc5ccccc5)n4)c3c2)cc1 [1B6, N-phenethyl-4-(5-(p-tolyl)-1H-pyrrolo[2,3-b]pyridin-3-yl)pyrimidin-2-amine]
inhibition at 0.5 µM (CDK-9/Cyclin T1; [3]): > 70%
inhibition at 0.5 µM (CDK-9/Cyclin T1; [4]): > 70%
inhibition at 0.5 µM (CDK-2/cyclin A; [5]): > 70%
inhibition at 0.5 µM (CDK-2/cyclin A; [6]): > 70%

CSc1ccc(-c2cnc3[nH]cc(-c4ccnc(NC5CCCCCC5)n4)c3c2)cc1 [1A48, N-cycloheptyl-4-(5-(4-(methylthio)phenyl)-1H-pyrrolo[2,3-b]pyridin-3-yl)pyrimidin-2-amine]
inhibition at 0.5 µM (CDK-9/Cyclin T1; [1]): > 50%
inhibition at 0.5 µM (CDK-9/Cyclin T1; [4]): > 50%
inhibition at 0.5 µM (CDK-2/cyclin A; [2]): > 50%
inhibition at 0.5 µM (CDK-2/cyclin A; [6]): > 50%

CSc1ccc(-c2cnc3[nH]cc(-c4ccnc(NC5CCCC5)n4)c3c2)cc1 [1A28, N-cyclopentyl-4-(5-(4-(methylthio)phenyl)-1H-pyrrolo[2,3-b]pyridin-3-yl)pyrimidin-2-amine]
inhibition at 0.5 µM (CDK-9/Cyclin T1; [1]): > 50%
inhibition at 0.5 µM (CDK-9/Cyclin T1; [4]): > 50%
inhibition at 0.5 µM (CDK-2/cyclin A; [2]): > 50%
inhibition at 0.5 µM (CDK-2/cyclin A; [6]): > 50%

c1ccc2sc(-c3cnc4[nH]cc(-c5ccnc(NC6CCCCCC6)n5)c4c3)cc2c1 [1A58, 4-(5-(benzo[b]thiophen-2-yl)-1H-pyrrolo[2,3-b]pyridin-3-yl)-N-cycloheptylpyrimidin-2-amine]
inhibition at 0.5 µM (CDK-9/Cyclin T1; [3]): > 70%
inhibition at 0.5 µM (CDK-9/Cyclin T1; [4]): > 70%
inhibition at 0.5 µM (CDK-2/cyclin A; [5]): > 70%
inhibition at 0.5 µM (CDK-2/cyclin A; [6]): > 70%

O=Cc1ccc(-c2cnc3[nH]cc(-c4ccnc(NC5CCCC5)n4)c3c2)cc1 [1A33, 4-(3-(2-(cyclopentylamino)pyrimidin-4-yl)-1H-pyrrolo[2,3-b]pyridin-5-yl)benzaldehyde]
inhibition at 0.5 µM (CDK-9/Cyclin T1; [1]): > 50%
inhibition at 0.5 µM (CDK-2/cyclin A; [2]): > 70%

c1ccc2[nH]c(-c3cnc4[nH]cc(-c5ccnc(NC6CCCC6)n5)c4c3)cc2c1 [1A39, 4-(5-(1H-indol-2-yl)-1H-pyrrolo[2,3-b]pyridin-3-yl)-N-cyclopentylpyrimidin-2-amine]
inhibition at 0.5 µM (CDK-9/Cyclin T1; [1]): > 50%
inhibition at 0.5 µM (CDK-9/Cyclin T1; [4]): > 50%
inhibition at 0.5 µM (CDK-2/cyclin A; [2]): > 50%
inhibition at 0.5 µM (CDK-2/cyclin A; [6]): > 50%

COc1ccc2[nH]c(-c3cnc4[nH]cc(-c5ccnc(NC6CCCCCC6)n5)c4c3)cc2c1 [1A57, N-cycloheptyl-4-(5-(5-methoxy-1H-indol-2-yl)-1H-pyrrolo[2,3-b]pyridin-3-yl)pyrimidin-2-amine]
inhibition at 0.5 µM (CDK-9/Cyclin T1; [3]): > 70%
inhibition at 0.5 µM (CDK-9/Cyclin T1; [4]): > 70%
inhibition at 0.5 µM (CDK-2/cyclin A; [5]): > 70%
inhibition at 0.5 µM (CDK-2/cyclin A; [6]): > 70%

CCc1ccccc1-c1cnc2[nH]cc(-c3ccnc(NC4CC4)n3)c2c1 [1A10, N-cyclopropyl-4-(5-(2-ethylphenyl)-1H-pyrrolo[2,3-b]pyridin-3-yl)pyrimidin-2-amine]
inhibition at 0.5 µM (CDK-9/Cyclin T1; [1]): > 70%
inhibition at 0.5 µM (CDK-9/Cyclin T1; [4]): > 70%
inhibition at 0.5 µM (CDK-2/cyclin A; [2]): > 70%
inhibition at 0.5 µM (CDK-2/cyclin A; [6]): > 70%

CCc1ccccc1-c1cnc2[nH]cc(-c3ccnc(NC4CCCC4)n3)c2c1 [1A30, N-cyclopentyl-4-(5-(2-ethylphenyl)-1H-pyrrolo[2,3-b]pyridin-3-yl)pyrimidin-2-amine]
inhibition at 0.5 µM (CDK-9/Cyclin T1; [1]): > 50%
inhibition at 0.5 µM (CDK-9/Cyclin T1; [4]): > 50%
inhibition at 0.5 µM (CDK-2/cyclin A; [2]): > 50%
inhibition at 0.5 µM (CDK-2/cyclin A; [6]): > 50%

Cc1ccc(-c2cnc3[nH]cc(-c4ccnc(NC5CCCCCC5)n4)c3c2)cc1 [1A46, N-cycloheptyl-4-(5-(p-tolyl)-1H-pyrrolo[2,3-b]pyridin-3-yl)pyrimidin-2-amine]
inhibition at 0.5 µM (CDK-9/Cyclin T1; [1]): > 50%
inhibition at 0.5 µM (CDK-9/Cyclin T1; [4]): > 50%
inhibition at 0.5 µM (CDK-2/cyclin A; [2]): > 50%
inhibition at 0.5 µM (CDK-2/cyclin A; [6]): > 50%

CSc1ccccc1-c1cnc2[nH]cc(-c3ccnc(NC4CCCC4)n3)c2c1 [1A29, N-cyclopentyl-4-(5-(2-(methylthio)phenyl)-1H-pyrrolo[2,3-b]pyridin-3-yl)pyrimidin-2-amine]
inhibition at 0.5 µM (CDK-9/Cyclin T1; [1]): > 70%
inhibition at 0.5 µM (CDK-9/Cyclin T1; [4]): > 70%
inhibition at 0.5 µM (CDK-2/cyclin A; [2]): > 70%
inhibition at 0.5 µM (CDK-2/cyclin A; [6]): > 70%

c1ccc(CCNc2nccc(-c3c[nH]c4ncc(-c5cc6ccccc6[nH]5)cc34)n2)cc1 [1B19, 4-(5-(1H-indol-2-yl)-1H-pyrrolo[2,3-b]pyridin-3-yl)-N-phenethylpyrimidin-2-amine]
inhibition at 0.5 µM (CDK-9/Cyclin T1; [3]): > 50%
inhibition at 0.5 µM (CDK-9/Cyclin T1; [4]): > 50%
inhibition at 0.5 µM (CDK-2/cyclin A; [5]): > 50%
inhibition at 0.5 µM (CDK-2/cyclin A; [6]): > 50%

FC(F)(F)c1cccc(-c2cnc3[nH]cc(-c4ccnc(NC5CC5)n4)c3c2)c1 [1A4, N-cyclopropyl-4-(5-(3-(trifluoromethyl)phenyl)-1H-pyrrolo[2,3-b]pyridin-3-yl)pyrimidin-2-amine]
inhibition at 0.5 µM (CDK-9/Cyclin T1; [1]): > 70%
inhibition at 0.5 µM (CDK-9/Cyclin T1; [4]): > 70%
inhibition at 0.5 µM (CDK-2/cyclin A; [2]): > 70%
inhibition at 0.5 µM (CDK-2/cyclin A; [6]): > 70%

FC(F)(F)Oc1ccc(-c2cnc3[nH]cc(-c4ccnc(NC5CCCCCC5)n4)c3c2)cc1 [1A43, N-cycloheptyl-4-(5-(4-(trifluoromethoxy)phenyl)-1H-pyrrolo[2,3-b]pyridin-3-yl)pyrimidin-2-amine]
inhibition at 0.5 µM (CDK-9/Cyclin T1; [1]): > 50%
inhibition at 0.5 µM (CDK-9/Cyclin T1; [4]): > 50%
inhibition at 0.5 µM (CDK-2/cyclin A; [2]): > 50%
inhibition at 0.5 µM (CDK-2/cyclin A; [6]): > 50%

COc1ccc2[nH]c(-c3cnc4[nH]cc(-c5ccnc(NC6CC6)n5)c4c3)cc2c1 [1A17, N-cyclopropyl-4-(5-(5-methoxy-1H-indol-2-yl)-1H-pyrrolo[2,3-b]pyridin-3-yl)pyrimidin-2-amine]
inhibition at 0.5 µM (CDK-9/Cyclin T1; [1]): > 50%
inhibition at 0.5 µM (CDK-9/Cyclin T1; [4]): > 50%
inhibition at 0.5 µM (CDK-2/cyclin A; [2]): > 50%
inhibition at 0.5 µM (CDK-2/cyclin A; [6]): > 50%

c1ccc2c(-c3cnc4[nH]cc(-c5ccnc(NC6CCCC6)n5)c4c3)nccc2c1 [1A40, N-cyclopentyl-4-(5-(isoquinolin-1-yl)-1H-pyrrolo[2,3-b]pyridin-3-yl)pyrimidin-2-amine]
inhibition at 0.5 µM (CDK-9/Cyclin T1; [1]): > 50%
inhibition at 0.5 µM (CDK-9/Cyclin T1; [4]): > 50%
inhibition at 0.5 µM (CDK-2/cyclin A; [2]): > 50%
inhibition at 0.5 µM (CDK-2/cyclin A; [6]): > 50%
